Numbered stars: 1 amine (or outer) side, 2 acyl side, 3 side chain; on linkers, the order of the positions; unused ones are H or OH. Square brackets hold non-standard residues; d marks the D form. Peptide text beside a SMILES is read from it. * marks the point of attachment. Phe(3-CF3) = N[C@@H](Cc1cccc(C(F)(F)F)c1)C(=O)O; Pro(4R-NH2) = N[C@H]1CN[C@H](C(=O)O)C1; X11 = O=C(C(CCN1CCCC1)N[*:1])[*:2]; X2 = O=C([C@H]1CCCN([*:1])C1)[*:2]; Hyp = O=C(O)[C@@H]1C[C@@H](O)CN1; 3Thi = N[C@@H](Cc1ccsc1)C(=O)O; NHcycloheptyl = C1CCCC(N*)CC1; NMeL = CN[C@@H](CC(C)C)C(=O)O; Octanoyl = CCCCCCCC(=O)*; Thz = O=C(O)[C@@H]1CSCN1; Api = NC1(C(=O)O)CCNCC1

One test deals with T1, NPR-B (Homo sapiens, UniProt P20594).
T1 construct: a functional assay using endogenously NPR-B expressing GTM-3 cells; endogenous in cells; host or cells: GTM-3 (human glaucoma trabecular meshwork cells)
T1 sequence (P20594 23-1047): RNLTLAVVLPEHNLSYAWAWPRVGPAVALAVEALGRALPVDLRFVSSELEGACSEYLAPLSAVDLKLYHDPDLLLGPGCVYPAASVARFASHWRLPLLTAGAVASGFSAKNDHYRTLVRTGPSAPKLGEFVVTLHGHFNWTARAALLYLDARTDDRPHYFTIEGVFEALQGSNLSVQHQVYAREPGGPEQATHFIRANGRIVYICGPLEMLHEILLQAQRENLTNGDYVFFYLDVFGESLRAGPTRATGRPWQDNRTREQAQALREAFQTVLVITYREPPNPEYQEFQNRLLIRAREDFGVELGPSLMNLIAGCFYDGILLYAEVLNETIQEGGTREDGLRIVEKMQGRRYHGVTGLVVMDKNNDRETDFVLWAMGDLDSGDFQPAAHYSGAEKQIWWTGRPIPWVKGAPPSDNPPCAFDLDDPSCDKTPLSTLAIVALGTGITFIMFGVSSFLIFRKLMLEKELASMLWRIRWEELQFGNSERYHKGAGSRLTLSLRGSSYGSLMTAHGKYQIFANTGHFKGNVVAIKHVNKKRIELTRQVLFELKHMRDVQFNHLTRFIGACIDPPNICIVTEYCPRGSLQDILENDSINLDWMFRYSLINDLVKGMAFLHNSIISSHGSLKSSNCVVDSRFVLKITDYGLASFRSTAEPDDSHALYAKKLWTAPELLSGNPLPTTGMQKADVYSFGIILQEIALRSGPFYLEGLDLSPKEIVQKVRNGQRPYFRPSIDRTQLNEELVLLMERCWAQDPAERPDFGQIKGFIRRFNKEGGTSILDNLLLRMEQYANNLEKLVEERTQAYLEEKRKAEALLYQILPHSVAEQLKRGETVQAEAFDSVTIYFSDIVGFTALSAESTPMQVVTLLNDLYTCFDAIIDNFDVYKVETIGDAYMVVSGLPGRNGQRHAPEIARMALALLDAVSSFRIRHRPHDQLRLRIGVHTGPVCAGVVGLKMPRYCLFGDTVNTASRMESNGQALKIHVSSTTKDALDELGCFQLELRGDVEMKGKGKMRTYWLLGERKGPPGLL
The test is described as follows: NPR-B induced production of cyclic GMP in human glaucoma trabecular meshwork cells (GTM-3). In kind it is cell-based.
Details: not given
In the case of `CCCCCCCC(=O)N1CCC[C@H](C(=O)N[C@@H](Cc2ccccc2)C(=O)NCC(=O)N[C@@H](CC(C)C)C(=O)N2C[C@H](N)C[C@H]2C(=O)N(C)[C@@H](CC(C)C)C(=O)N[C@@H](CC(=O)O)C(=O)N[C@@H](CCCNC(=N)N)C(=O)N[C@H](C(N)=O)[C@@H](C)CC)C1` [JAL-1320, Occ-Sni-Phe-Gly-Leu-Tap-Nml-Asp-Arg-Ile-NH2] (Octanoyl-[X2]FGL[Pro(4R-NH2)][NMeL]DRI-NH2), the EC50 was < 1000 nM.

Staying with this test, now noted: group by EC50 and Emax (CNP = 100%); Table 4; read-out: Activity (group), NPR-B activation assayed with GTM-3 cells.
Turning to `CCCCCCCC(=O)N1CCC[C@H](C(=O)N[C@@H](Cc2cccc(C(F)(F)F)c2)C(=O)N[C@H](CC(C)C)C(=O)N[C@@H](CC(C)C)C(=O)N2C[C@H](O)C[C@H]2C(=O)N(C)[C@@H](CC(C)C)C(=O)N[C@@H](CC(=O)O)C(=O)N[C@@H](CCCNC(=N)N)C(=O)N[C@H](C(N)=O)[C@@H](C)CC)C1` [JAL-1621, Occ-Sni-Mtf-leu-Leu-Hyp-Nml-Asp-Arg-Ile-NH2] (Octanoyl-[X2][Phe(3-CF3)][dL]L[Hyp][NMeL]DRI-NH2), the EC50 is < 1000 nM. `CCCCCCCC(=O)N1CCC[C@H](C(=O)N[C@@H](Cc2ccsc2)C(=O)N[C@H](CC(C)C)C(=O)N[C@@H](CC(C)C)C(=O)N2C[C@H](O)C[C@H]2C(=O)N(C)[C@@H](CC(C)C)C(=O)N[C@@H](CC(=O)O)C(=O)N[C@@H](CCCNC(=N)N)C(=O)N[C@H](C(N)=O)[C@@H](C)CC)C1` [JAL-1620, Occ-Sni-Thk-leu-Leu-Hyp-Nml-Asp-Arg-Ile-NH2] (Octanoyl-[X2][3Thi][dL]L[Hyp][NMeL]DRI-NH2): the EC50 was < 1000 nM. With `CCCCCCCC(=O)N[C@H](C)C(=O)N[C@@H](Cc1ccccc1)C(=O)N[C@H](CCCC)C(=O)N[C@@H](CC(C)C)C(=O)N1C[C@H](O)C[C@H]1C(=O)N(C)[C@@H](CC(C)C)C(=O)N[C@@H](CC(=O)O)C(=O)N[C@@H](CCCNC(=N)N)C(=O)N[C@H](C(N)=O)[C@@H](C)CC` [JAL-1044, Occ-ala-Phe-nle-Leu-Hyp-Nml-Asp-Arg-Ile-NH2] (HELM PEPTIDE1{[CCCCCCCC(=O)[*:2]].[dA].F.[CCCC[C@@H](N[*:1])C(=O)[*:2]].L.[Hyp].[meL].D.R.I.[am]}$$$$V2.0), the EC50 is < 1000 nM.

For `CCCCCCCC(=O)N1CCC[C@H](C(=O)N[C@@H](Cc2ccccc2)C(=O)N[C@H](CC(C)C)C(=O)N[C@@H](CC(C)C)C(=O)N2C[C@H](N)C[C@H]2C(=O)N(C)[C@@H](CC(C)C)C(=O)N[C@@H](CC(=O)O)C(=O)N[C@@H](CCCNC(=N)N)C(=O)NC2CCCCCC2)C1` [JAL-1682, Occ-Sni-Phe-leu-Leu-Tap-Nml-Asp-Arg-Che] (Octanoyl-[X2]F[dL]L[Pro(4R-NH2)][NMeL]DR-NHcycloheptyl), the EC50 was < 1000 nM. In the case of `CCCCCCCCN1CCC[C@H](C(=O)N[C@@H](Cc2ccccc2)C(=O)N[C@H](CC(C)C)C(=O)N[C@@H](CC(C)C)C(=O)N2C[C@H](N)C[C@H]2C(=O)N(C)[C@@H](CC(C)C)C(=O)N[C@@H](CC(=O)O)C(=O)N[C@@H](CCCNC(=N)N)C(=O)N[C@H](C(N)=O)[C@@H](C)CC)C1` [JAL-1326, Oct-Sni-Phe-leu-Leu-Tap-Nml-Asp-Arg-Ile-NH2] (HELM PEPTIDE1{[CCCCCCCCN1CCC[C@H](C(=O)[*:2])C1].F.[dL].L.[N[C@@H]1C[C@@H](C(=O)[*:2])N([*:1])C1].[meL].D.R.I.[am]}$$$$V2.0), the EC50 is < 1000 nM. On to `CCCCCCCC(=O)OC(C)C(=O)N[C@@H](Cc1ccccc1)C(=O)N[C@H](CC(C)C)C(=O)N[C@@H](CC(C)C)C(=O)N1C[C@H](O)C[C@H]1C(=O)N(C)[C@@H](CC(C)C)C(=O)N[C@@H](CC(=O)O)C(=O)N[C@@H](CCCNC(=N)N)C(=O)N[C@H](C(N)=O)[C@@H](C)CC` (stereo partly drawn) [JAL-1294, (AR-201-49)-Phe-leu-Leu-Hyp-Nml-Asp-Arg-Ile-NH2] (HELM PEPTIDE1{[CCCCCCCC(=O)[*:2]].[CC(O[*:1])C(=O)[*:2]].F.[dL].L.[Hyp].[meL].D.R.I.[am]}$$$$V2.0), for which the EC50 is < 1000 nM. With `CCCCCCCC(=O)N1CCC[C@H](C(=O)N[C@@H](Cc2ccccc2)C(=O)N[C@H](CC(C)C)C(=O)N[C@@H](CC(C)C)C(=O)N2C[C@H](O)C[C@H]2C(=O)N(C)[C@@H](CC(C)C)C(=O)N[C@@H](CC(=O)O)C(=O)N2CSC[C@H]2C(=O)NC2CCCCCC2)C1` [JAL-1638, Occ-Sni-Phe-leu-Leu-Hyp-Nml-Asp-Eaz-Che] (Octanoyl-[X2]F[dL]L[Hyp][NMeL]D[Thz]-NHcycloheptyl), the EC50 was < 1000 nM. Same read-out and setting: under `CCCCCCCC(=O)N[C@H](C)C(=O)N[C@@H](Cc1ccccc1)C(=O)N[C@H](CC(C)C)C(=O)N[C@@H](CC(C)C)C(=O)N1CCC[C@H]1C(=O)N(C)[C@@H](CC(C)C)C(=O)N[C@@H](CC(=O)O)C(=O)N[C@@H](CCCNC(=N)N)C(=O)N[C@H](C(N)=O)[C@@H](C)CC` [JAL-1039, Occ-ala-Phe-leu-Leu-Pro-Nml-Asp-Arg-Ile-NH2] (HELM PEPTIDE1{[CCCCCCCC(=O)[*:2]].[dA].F.[dL].L.P.[meL].D.R.I.[am]}$$$$V2.0) stands < 1000 nM. Consider `CCCCCCCC(=O)N1CCC[C@H](C(=O)N[C@@H](Cc2ccccc2)C(=O)NC2(C(=O)N[C@@H](CC(C)C)C(=O)N3C[C@H](N)C[C@H]3C(=O)N(C)[C@@H](CC(C)C)C(=O)N[C@@H](CC(=O)O)C(=O)N3CCC[C@H]3C(=O)N[C@H](C(N)=O)[C@@H](C)CC)CCNCC2)C1` [JAL-1561, Occ-Sni-Phe-Apc-Leu-Tap-Nml-Asp-Pro-Ile-NH2] (Octanoyl-[X2]F[Api]L[Pro(4R-NH2)][NMeL]DPI-NH2), for which the EC50 is < 1000 nM. As for `CCCCCCCC(=O)N1CCC[C@H](C(=O)N[C@@H](Cc2ccccc2)C(=O)N[C@H](CC(C)C)C(=O)N[C@@H](CC(C)C)C(=O)N2C[C@H](N)C[C@H]2C(=O)N(C)[C@@H](CC(C)C)C(=O)N[C@H](C(=O)N[C@@H](CCCNC(=N)N)C(=O)N[C@H](C(N)=O)[C@@H](C)CC)C(C)C)C1` [JAL-1401, Occ-Sni-Phe-leu-Leu-Tap-Nml-Val-Arg-Ile-NH2] (Octanoyl-[X2]F[dL]L[Pro(4R-NH2)][NMeL]VRI-NH2), the EC50 is < 1000 nM. Still for that read-out and setting: under `CCCCCCCC(=O)N1CCC[C@H](C(=O)N[C@@H](Cc2ccccc2)C(=O)NC(CCN2CCCC2)C(=O)N[C@@H](CC(C)C)C(=O)N2C[C@H](O)C[C@H]2C(=O)N(C)[C@@H](CC(C)C)C(=O)N[C@@H](CC(=O)O)C(=O)N[C@@H](CCCNC(=N)N)C(=O)N[C@H](C(N)=O)[C@@H](C)CC)C1` (stereo partly drawn) [JAL-1877, Occ-Sni-Phe-(AR-385-12)-Leu-Hyp-Nml-Asp-Arg-Ile-NH2] (Octanoyl-[X2]F[X11]L[Hyp][NMeL]DRI-NH2) stands < 1000 nM; under `CCCCCCCC(=O)N[C@H](C)C(=O)N[C@@H](Cc1ccccc1)C(=O)N[C@H](CCCNC(=N)N)C(=O)N[C@@H](CC(C)C)C(=O)N1C[C@H](O)C[C@H]1C(=O)N(C)[C@@H](CC(C)C)C(=O)N[C@@H](CC(=O)O)C(=O)N[C@@H](CCCNC(=N)N)C(=O)N[C@H](C(N)=O)C(C)(C)C` [JAL-1305, Occ-ala-Phe-arg-Leu-Hyp-Nml-Asp-Arg-Tbg-NH2] (HELM PEPTIDE1{[CCCCCCCC(=O)[*:2]].[dA].F.[dR].L.[Hyp].[meL].D.R.[CC(C)(C)[C@H](N[*:1])C(=O)[*:2]].[am]}$$$$V2.0), < 1000 nM; under `CCCCCCCC(=O)N1CCC[C@H](C(=O)N[C@@H](Cc2ccccc2)C(=O)N[C@H](CC(C)C)C(=O)N[C@@H](CC(C)C)C(=O)N2C[C@H](O)C[C@H]2C(=O)N(C)[C@@H](CC(C)C)C(=O)N[C@H](C(=O)N[C@@H](CCCNC(=N)N)C(=O)NC2CCCCCC2)[C@@H](C)O)C1` [JAL-1753, Occ-Sni-Phe-leu-Leu-Hyp-Nml-Thr-Arg-Che] (Octanoyl-[X2]F[dL]L[Hyp][NMeL]TR-NHcycloheptyl), < 1000 nM.

The values are drawn from patent US9822147B2, “Methods of treating ophthalmic diseases using NPR-B agonists” (priority 2009, dated 2017).
